Bounds are passed on as bounds.

In one assay the target is T1, AuroraA-TPX2 (Homo sapiens, UniProt O14965).
T1 construct: 20 μL of AuroraA-TPX2 KD GST; GST
T1 sequence (O14965 133-383 limits assumed): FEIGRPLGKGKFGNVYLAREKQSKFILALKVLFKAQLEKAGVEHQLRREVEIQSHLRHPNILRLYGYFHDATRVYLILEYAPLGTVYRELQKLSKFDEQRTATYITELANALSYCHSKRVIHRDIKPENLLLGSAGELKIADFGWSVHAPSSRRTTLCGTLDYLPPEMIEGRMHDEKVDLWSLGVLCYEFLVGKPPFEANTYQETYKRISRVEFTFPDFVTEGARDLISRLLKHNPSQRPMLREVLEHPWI
T1 sequence (Q9ULW0 1-43 partner limits assumed): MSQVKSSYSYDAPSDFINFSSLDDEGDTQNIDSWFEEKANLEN
In words: AuroraA-TPX2 Homogeneous Time Resolved Fluorescent (HTRF) kinase assay. The class given is biochemical. As to conditions: average; ATP about 1 μM; read-out: AurA_IC50_IP (uM Avg). The method, then:
The Aurora-A HTRF assay begins with Aurora-A in the presence of ATP phosphorylating the biotinylated peptide PLK. The reaction incubates for about 120 min. Detection reagents are added to quench the reaction. These agents stop the reaction by diluting out the enzyme and chelating the metals due to the presence of EDTA. After addition, the assay is incubated overnight to allow the detection reagents to equilibrate.
The AuroraA HTRF assay comprises 1 μL of compound in 100% DMSO, 20 μL of ATP and biotinylated PLK, and 20 μL of AuroraA-TPX2 KD GST for a final volume of about 41 μL. The final concentration of PLK is about 1 μM. The final concentration of ATP is about 1 μM (Km(app)=1 μM+/−0.1) and the final concentration of AuroraA is about 5 nM. Buffer conditions are as follows: 60 mM HEPES pH 7.5, 25mM NaCl, 10 mM MgCl, 2 mM DTT, 0.05% BSA.
The assay is quenched and stopped with 160 μL of detection reagent. Detection reagents are as follows: Buffer made of 50 mM Tris, pH 7.5, 100 mM NaCl, 3 mM EDTA, 0.05% BSA, 0.1% Tween20. Added to this buffer prior to reading is Steptavidin allophycocyanin (SA-APC) at a final conc in the assay of 0.0005 mg/mL, and europilated anti-phosphoPLK Ab (Eu-anti-PLK) at a final conc of 0.02 nM.
The assay plate is read in either a Discovery or a RubyStar. The eu-anti-PLK is excited at 320 nm and emits at 615 nm to excite the SA-APC which in turn emits at 655 nm. The ratio of SA-APC at 655 nm (excited due to close proximity to the Eu-anti-PLK because of phosphorylation of the peptide) to free Eu-anti-PLK at 615 nm will give substrate phosphorylation.
Many of the Examples described herein were tested and found to be active compounds. Table I includes related biological data, which may be interpreted using the activity gauge below.
Background: Time-resolved FRET reads energy transfer from a long-lived donor to a nearby acceptor.

A further assay deals with T2, AuroraB (Homo sapiens, UniProt Q96GD4).
T2 construct: 20 μL of AuroraB FL His; His
T2 sequence (Q96GD4 whole entry): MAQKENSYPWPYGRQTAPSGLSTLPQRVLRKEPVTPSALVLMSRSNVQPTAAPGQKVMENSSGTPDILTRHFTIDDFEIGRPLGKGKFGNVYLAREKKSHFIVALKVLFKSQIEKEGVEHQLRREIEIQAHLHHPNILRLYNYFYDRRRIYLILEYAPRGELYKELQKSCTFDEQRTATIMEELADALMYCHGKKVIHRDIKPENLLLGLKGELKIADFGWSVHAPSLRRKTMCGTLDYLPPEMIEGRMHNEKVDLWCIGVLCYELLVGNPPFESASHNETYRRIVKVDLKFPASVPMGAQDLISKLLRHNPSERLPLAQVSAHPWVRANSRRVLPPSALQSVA
The experiment in a line: AuroraB Homogeneous Time Resolved Fluorescent (HTRF) kinase assay. The class given is biochemical. As to conditions: average; ATP 23 μM; read-out: AurB_IC50_IP (uM Avg). The method, then: The AuroraB HTRF assay begins with AuroraB in the presence of ATP phosphorylating the biotinylated peptide Histone H3. The reaction incubates for about 90 min. the reaction is quentched by addition of detection reagents, which stop the reaction by diluting out the enzyme and chelating the metals due to the presence of EDTA. After addition, the assay is incubated for about 60 min to allow detection reagents to equilibrate.
The AuroraB HTRF assay comprises 1 μL of compound in 100% DMSO, 20 μL of ATP and biotinylated Histone H3, and 20 μL of AuroraB FL His for a final volume of 41 μL. The final concentration of Histone H3 is 0.1 μM. The final concentration of ATP is 23 μM (Km(app)=23 μM+/−2.6) and the final concentration of AuroraB is 400 pM. Buffer conditions are as follows: 50 mM HEPES pH 7.5, 5 mM NaCl, 0.5 mM MgCl, 0.5 mM MnCl, 2 mM DTT, 0.05% BSA.
The assay is quenched and stopped with 160 μL of detection reagent. Detection reagents are as follows: Buffer made of 50 mM Tris, pH 7.5, 100 mM NaCl, 3 mM EDTA, 0.05% BSA, 0.1% Tween20. Added to this buffer prior to reading is Steptavidin allophycocyanin (SA-APC) at a final conc in the assay of 0.001 mg/mL, and europilated anti-phosphoHistoneH3 Ab (Eu-anti-HisH3) at a final conc of 0.064 nM.
The assay plate is read in either a Discovery or a RubyStar. The eu-anti-HisH3 is excited at 320 nm and emits at 615 nm to excite the SA-APC which in turn emits at 655 nm. The ratio of SA-APC at 655 nm (excited due to close proximity to the Eu-anti-HisH3 because of phosphorylation of the peptide) to free Eu-anti-HisH3 at 615 nm will give substrate phosphorylation.
Many of the Examples described herein were tested, and fund to be active compounds. Table I includes related biological data, which may be interpreted using the activity gauge below.

The test system of another assay is HeLa cells. In words: HeLa cell 24 hr ploidy assay. The class given is cell-based. The conditions noted are these: Homo sapiens, 24 hrs treatment, DNA ploidy, average, read-out: 24h_4N Ploidy EC50_IP (uM Avg). The procedure: The purpose of this assay is to evaluate the ability of selected individual compounds to induce Deoxyribonucleic acid (DNA) content (ploidy) in cells through failed cell division. Cell cycle analysis is a rapid and efficient way to evaluate the status of DNA content (ploidy) of a given cell. HeLa cells (1×10^4 HeLa cells/well) in 100 ul of media (MEM+10% FBS) were plated in 96-well plates (Packard View) and cultured for 24 hrs at 37° C. maintained in a 5% CO2 atmosphere. The following day, cells were treated for 24 hrs with inhibitor compounds (10 pt. Dose ranging from 0.0024-1.25 umol/L). The compounds were serially diluted in DMSO (0.25% final concentration). The cells were fixed (3.7% Formaldehyde and 1% glutaraldehyde) and permeabilized (1×PBS with 1% BSA an d0.2% Triton X-100) in preparation for nuclear staining. The well plates were stained for 45 minutes at RT in the dark using Hoechest 33342 nuclear stain at 0.5 ug.ml (Stock of 10 mg/ml, Invitrogen, Calif., Cat #H3570). The nuclear stain was removed by aspiration and the cells were washed with wash buffer. A Cellomics Array Scan Vti plate reader was used to acquire the DNA ploidy data of the cells using Cell Cycle bioapplication. Numbers for each of “valid cell count/well”, “% of 4N cells” and “% of >4Ncells” were calculated with the assistance of an Activity Base 5.1ca software and dose curves were generated using an XLFit software. With XLFit, final EC50 IP and EC50 transit values, as well as the Max and Min, were calculated for each curve.

With `CNc1cc(Sc2ccc(Nc3nnc(-c4ccc(Cl)cc4)c4ccccc34)cc2)ccn1` [Example 28, 4-(4-chlorophenyl)-N-(4-((2-(methylamino)-4-pyridinyl)thio)phenyl)-1-phthalazinamine], the values for the IC50 on AuroraA-TPX2 and at AuroraB were 0.1 to 0.5 µM and less than 0.1 µM, respectively. For the same compound, the EC50 in the assay with HeLa cells lay in the range of 0.1 to 0.5 µM.

In the case of `Clc1ccc(-c2nnc(Nc3ccc(Oc4ccnc(-c5nc6ccccc6[nH]5)c4)cc3)c3ccccc23)cc1` [Example 38, N-(4-((2-(1H-benzimidazol-2-yl)-4-pyridinyl)oxy)phenyl)-4-(4-chlorophenyl)-1-phthalazinamine], the IC50 is 0.1 to 0.5 µM at AuroraA-TPX2 and less than 0.1 µM on AuroraB. In addition, in the assay with HeLa cells, the EC50 is less than 0.1 µM.

`OCCNc1nccc(Sc2ccc(Nc3nnc(-c4ccc(Cl)cc4)c4ccccc34)cc2)n1` [Example 32, 2-((4-((4-((4-(4-chlorophenyl)-1-phthalazinyl)amino)phenyl)sulfanyl)-2-pyrimidinyl)amino)ethanol]: the IC50 on AuroraA-TPX2 and on AuroraB was less than 0.1 µM in each case. In addition, in the assay with HeLa cells, the EC50 is less than 0.1 µM.

As to `CNC(=O)c1cc(Sc2ccc(Nc3nnc(-c4ccc(Cl)cc4)c4ccccc34)cc2)ccn1` [Example 25, 4-((4-((4-(4-chlorophenyl)-1-phthalazinyl)amino)phenyl)thio)-N-methyl-2-pyridinecarboxamide], the values for the IC50 at AuroraA-TPX2 and at AuroraB were 1 to 5 µM and 0.1 to 0.5 µM, respectively. In addition, the EC50 in the assay on HeLa cells fell in the range of 0.1 to 0.5 µM.

Turning to `CSc1nccc(Oc2ccc(Nc3nnc(-c4ccccc4)c4ccccc34)cc2)n1` [Example 43, N-(4-((2-(methylthio)-4-pyrimidinyl)oxy)phenyl)-4-phenyl-1-phthalazinamine], the IC50 on AuroraB is 1 to 5 µM. The EC50 in the assay with HeLa cells lay within 0.1 to 0.5 µM.

`CNCCNc1nccc(Sc2ccc(Nc3nnc(-c4ccccc4)c4ccccc34)cc2)n1` [Example 33, N-methyl-N′-(4-((4-((4-phenyl-1-phthalazinyl)amino)phenyl)sulfanyl)-2-pyrimidinyl)-1,2-ethanediamine]: the IC50 on AuroraB was 1 to 5 µM. Further, the EC50 in the assay with HeLa cells fell in the range of 1 to 5 µM.

As for `Clc1ccc(-c2nnc(Nc3ccc(Oc4ccnc(/C=C/c5ccccc5)n4)cc3)c3ccccc23)cc1` [Example 30, 4-(4-chlorophenyl)-N-(4-((2-((E)-2-phenylethenyl)-4-pyrimidinyl)oxy)phenyl)-1-phthalazinamine], the IC50 at AuroraA-TPX2 is 0.1 to 0.5 µM; at AuroraB, less than 0.1 µM. In the assay with HeLa cells, the EC50 lay in the range of 0.1 to 0.5 µM.

Regarding `Nc1cc(Sc2ccc(Nc3nnc(-c4ccc(Cl)cc4)c4ccccc34)cc2)ccn1` [Example 27, N-(4-((2-amino-4-pyridinyl)thio)phenyl)-4-(4-chlorophenyl)-1-phthalazinamine], the IC50 on AuroraA-TPX2 was 0.1 to 0.5 µM; at AuroraB, less than 0.1 µM. Further, the EC50 with HeLa cells fell in the range of 0.1 to 0.5 µM.

Turning to `Cc1ccc(-c2nnc(Nc3ccc(Sc4ccnc(-c5cc6ccccc6[nH]5)n4)cc3)c3ccccc23)cn1` [Example 39, N-(4-((2-(1H-indol-2-yl)-4-pyrimidinyl)sulfanyl)phenyl)-4-(6-methyl-3-pyridinyl)-1-phthalazinamine], the IC50 at AuroraA-TPX2 was 0.1 to 0.5 µM; on AuroraB, less than 0.1 µM. Besides, the EC50 with HeLa cells was 0.1 to 0.5 µM.

Turning to `CNCCNc1nccc(Sc2ccc(Nc3nnc(-c4ccc(Cl)cc4)c4ccccc34)cc2)n1` [Example 34, N-(4-((4-((4-(4-chlorophenyl)-1-phthalazinyl)amino)phenyl)sulfanyl)-2-pyrimidinyl)-N′-methyl-1,2-ethanediamine], the IC50 on AuroraA-TPX2 was 1 to 5 µM; on AuroraB it was 0.5 to 1 µM. In addition, the EC50 in the assay with HeLa cells lay in the range of 0.1 to 0.5 µM.

Turning to `c1ccc(-c2nnc(Nc3ccc(Sc4ccnc(-c5cc6ccccc6[nH]5)n4)cc3)c3ccccc23)cc1` [Example 42, N-(4-((2-(1H-indol-2-yl)-4-pyrimidinyl)sulfanyl)phenyl)-4-phenyl-1-phthalazinamine], the IC50 at AuroraB was 0.1 to 0.5 µM. The EC50 with HeLa cells lay within 1 to 5 µM.

Take `Cc1ccc(-c2nnc(Nc3ccc(Sc4ccnc(-c5cc6ccccc6[nH]5)n4)cc3)c3ccccc23)cc1N` [Example 41, 4-(3-amino-4-methylphenyl)-N-(4-((2-(1H-indol-2-yl)-4-pyrimidinyl)sulfanyl)phenyl)-1-phthalazinamine]: the IC50 on AuroraA-TPX2 was 0.1 to 0.5 µM; on AuroraB, less than 0.1 µM.

As for `OCCNc1nccc(Sc2ccc(Nc3nnc(-c4ccccc4)c4ccccc34)cc2)n1` [Example 31, 2-((4-((4-((4-phenyl-1-phthalazinyl)amino)phenyl)sulfanyl)-2-pyrimidinyl)amino)ethanol], the values for the IC50 on AuroraA-TPX2 and at AuroraB were 0.1 to 0.5 µM and less than 0.1 µM, respectively. Also, the EC50 with HeLa cells was in the range of 0.1 to 0.5 µM.

As to `Clc1ccc(-c2nnc(Nc3ccc(Sc4ccnc(-c5cc6ccccc6[nH]5)n4)cc3)c3ccccc23)cc1` [Example 36, 4-(4-chlorophenyl)-N-(4-((2-(1H-indol-2-yl)-4-pyrimidinyl)sulfanyl)phenyl)-1-phthalazinamine], the IC50 at AuroraA-TPX2 and at AuroraB was less than 0.1 µM in each case. Also, in the assay on HeLa cells, the EC50 is less than 0.1 µM.

As for `Clc1ccc(-c2nnc(Nc3ccc(Oc4ccnc(/C=C/c5ccccc5)c4)cc3)c3ccccc23)cc1` [Example 40, 4-(4-chlorophenyl)-N-(4-((2-((E)-2-phenylethenyl)-4-pyridinyl)oxy)phenyl)-1-phthalazinamine], the IC50 is 0.1 to 0.5 µM at AuroraA-TPX2 and less than 0.1 µM on AuroraB.
